Solubility of vilazodone data for one molecule are collected here from patent US12171761B2, “Vilazodone inclusion complexes, compositions and preparation thereof” (Sunshine Lake Pharma Co., Ltd., priority 2016, dated 2024).

This data set can be described thus: Solubility of vilazodone under different physiological pH conditions. In kind it is physicochemical. Here is the method:
The inventors discovered that a main cause of the difference in vilazodone bioavailability between fasted and fed conditions is the significant difference in the solubility of vilazodone under different physiological pH conditions. Vilazodone is mainly absorbed in the small intestine where the physiological pH is about 6.8, and the solubility of vilazodone under such a pH is very low. Thus the amount and rate of vilazodone that is dissolved in the stomach will affect its absorption in the small intestine. […] However, in a 0.1 N HCl solution (simulated stomach fasted conditions), the solubility of vilazodone is poor, resulting in a significant reduction in bioavailability.

SMILES strings stand for the structures.

Consider `N#Cc1ccc2[nH]cc(CCCCN3CCN(c4ccc5oc(C(N)=O)cc5c4)CC3)c2c1` [Vilazodone, 5-(4-[4-(5-cyano-1H-indol-3-yl)butyl]-1-piperazinyl)-2-benzofuran-2-carboxamide], for which the solubility of vilazodone result runs as follows: (0.1 N HCl solution (simulated stomach fasted conditions)) “poor”; (pH 3.1 buffer (simulated stomach fed conditions)) “dissolves well”; (physiological pH about 6.8 (small intestine)) “very low”.
